In the CheMixHub viscosity set:
Where “and” joins values, the source holds several entries; their conditions need not be identical. Equal entries are not always repeated. ± gives the uncertainty stated by the source.

CCn1cc[n+](C)c1.F[B-](F)(F)F
viscosity
Settings	293.15 K	298.15 K	303.15 K	313.15 K	323.15 K
100 kPa	50.54 ± 5.1 mPa·s	41.45 ± 4.2 mPa·s	34.53 ± 3.5 mPa·s	24.83 ± 2.5 mPa·s	18.62 ± 1.9 mPa·s
101 kPa	–	36.8 ± 6.5 mPa·s	28 ± 0.45 mPa·s and 28 ± 2.8 mPa·s	20.41 ± 0.33 mPa·s and 20.41 ± 2.1 mPa·s	15.35 ± 0.25 mPa·s and 15.35 ± 1.5 mPa·s

Cl[Si](Cl)(Cl)Cl
101 kPa
Settings	viscosity
303.1 K	0.462 ± 0.019 mPa·s and 0.442 ± 0.018 mPa·s
313.1 K	0.402 ± 0.017 mPa·s

Cc1ccc(N)cc1
101 kPa
Settings	viscosity [mPa·s]
313.05 K	2.08 ± 0.02
323.1 K	1.8 ± 0.036

Cc1ccccc1C
Settings	viscosity
293.15 K, 101 kPa	0.7604 ± 0.011 mPa·s
293.15 K, 101.33 kPa	0.812 ± 0.008 mPa·s
298.15 K, 100 kPa	0.7464 ± 0.09 mPa·s
298.15 K, 101 kPa	0.765 ± 0.012 mPa·s and 0.761 ± 0.02 mPa·s
298.15 K, 101.3 kPa	0.78 ± 0.01 mPa·s
298.15 K, 101.33 kPa	0.7587 ± 0.0096 mPa·s
303.15 K, 101 kPa	0.6725 ± 0.01 mPa·s and 0.68 ± 0.007 mPa·s and 0.7095 ± 0.018 mPa·s
303.15 K, 101.3 kPa	0.7272 ± 0.013 mPa·s and 0.7062 ± 0.037 mPa·s
303.15 K, 101.32 kPa	0.702 ± 0.018 mPa·s
303.15 K, 101.33 kPa	0.757 ± 0.078 mPa·s and 0.711 ± 0.007 mPa·s
308.15 K, 100 kPa	0.6199 ± 0.074 mPa·s
308.15 K, 101 kPa	0.676 ± 0.0068 mPa·s and 0.656 ± 0.009 mPa·s
308.15 K, 101.33 kPa	0.5381 ± 0.0069 mPa·s and 0.725 ± 0.075 mPa·s and 0.659 ± 0.005 mPa·s
313.15 K, 101.32 kPa	0.627 ± 0.016 mPa·s
313.15 K, 101.33 kPa	0.702 ± 0.073 mPa·s
318.15 K, 101.33 kPa	0.682 ± 0.072 mPa·s
323.15 K, 101.3 kPa	0.5554 ± 0.03 mPa·s

COC=O
Settings	viscosity [mPa·s]
298.15 K, 101.33 kPa	0.328 ± 0.003

CCOC(=O)OCC
Settings	viscosity
293.15 K, 101 kPa	0.8024 ± 0.0091 mPa·s
298.15 K, 101 kPa	0.74 mPa·s and 0.7539 ± 0.0087 mPa·s
303.15 K, 100 kPa	0.698 ± 0.015 mPa·s
303.15 K, 101 kPa	0.701 ± 0.019 mPa·s
308.15 K, 100 kPa	0.65 ± 0.02 mPa·s
308.15 K, 101 kPa	0.656 ± 0.018 mPa·s
313.15 K, 100 kPa	0.622 ± 0.013 mPa·s
313.15 K, 101 kPa	0.621 ± 0.017 mPa·s
318.15 K, 100 kPa	0.58 ± 0.02 mPa·s
318.15 K, 101.3 kPa	0.578 ± 0.008 mPa·s
318.15 K, 101.33 kPa	0.578 ± 0.008 mPa·s
323.15 K, 100 kPa	0.54 ± 0.02 mPa·s
323.15 K, 101 kPa	0.543 ± 0.0064 mPa·s

CCC#N
viscosity [mPa·s]
Settings	298.15 K	303.15 K	308.15 K	313.15 K	318.15 K	323.15 K
101 kPa	0.42 ± 0.01	0.41 ± 0.01	0.39 ± 0.01	0.37 ± 0.01	0.36 ± 0.01	0.31 ± 0.01
101.33 kPa	–	0.3886 ± 0.0035	–	–	–	–

CCCCCCCCCCCC[P+](CC)(CC)CC.N#Cc1ccc[n-]1
100 kPa
Settings	viscosity
293.15 K	422 ± 62 mPa·s and 423 ± 62 mPa·s
298.15 K	296 ± 43 mPa·s and 310 ± 45 mPa·s
303.15 K	212 ± 30 mPa·s and 214 ± 31 mPa·s
313.15 K	117 ± 17 mPa·s and 114 ± 16 mPa·s

OCCN(CCO)CCO
viscosity
Settings	293.15 K	298.15 K	303.15 K	313.15 K	323.15 K
100 kPa	935 ± 140 mPa·s	611 ± 91 mPa·s	413 ± 60 mPa·s	–	–
101 kPa	911.7 ± 63 mPa·s and 795 ± 48 mPa·s	607 ± 26 mPa·s	403 ± 25 mPa·s	201.7 ± 4.8 mPa·s	123 ± 3.6 mPa·s

COCCOCCO
viscosity
Settings	293.15 K	298.15 K	303.15 K	308.15 K	313.15 K	318.15 K	323.15 K
101 kPa	3.906 ± 0.058 mPa·s	3.442 ± 0.062 mPa·s and 3.574 ± 0.053 mPa·s	3.152 ± 0.047 mPa·s	2.593 ± 0.048 mPa·s	–	2.159 ± 0.039 mPa·s	–
101.3 kPa	3.943 ± 0.022 mPa·s	–	3.016 ± 0.017 mPa·s	–	2.348 ± 0.013 mPa·s	–	1.902 ± 0.011 mPa·s
101.33 kPa	–	3.565 ± 0.037 mPa·s and 3.565 ± 0.084 mPa·s	–	2.627 ± 0.063 mPa·s and 2.865 ± 0.035 mPa·s	–	–	–

CCCCCCCCCCO
Settings	viscosity
293.15 K, 100 kPa	14.27 ± 0.2 mPa·s
293.15 K, 101 kPa	13.04 ± 0.067 mPa·s
293.15 K, 101.33 kPa	14.55 ± 0.34 mPa·s
298.15 K, 101.33 kPa	11.57 ± 1.2 mPa·s
300 K, 101 kPa	10.3 ± 0.13 mPa·s
303.15 K, 100 kPa	9.708 ± 0.13 mPa·s
303.15 K, 101.3 kPa	8.835 ± 0.087 mPa·s
308 K, 101 kPa	7.646 ± 0.054 mPa·s
308.15 K, 100 kPa	8.108 ± 0.11 mPa·s
308.15 K, 101.3 kPa	8.39 ± 0.18 mPa·s
308.15 K, 101.33 kPa	7.918 ± 0.84 mPa·s
310 K, 101 kPa	7.09 ± 0.09 mPa·s
313 K, 101 kPa	6.396 ± 0.17 mPa·s
313.15 K, 100 kPa	6.846 ± 0.19 mPa·s
313.15 K, 101 kPa	6.846 ± 0.21 mPa·s and 7.929 ± 1.6 mPa·s and 6.845 ± 0.048 mPa·s
313.15 K, 101.3 kPa	6.955 ± 0.072 mPa·s
313.15 K, 101.33 kPa	6.955 ± 0.048 mPa·s and 6.955 ± 0.04 mPa·s and 6.955 ± 0.072 mPa·s
318.15 K, 100 kPa	5.879 ± 0.16 mPa·s and 5.771 ± 0.079 mPa·s and 5.785 ± 0.18 mPa·s
318.15 K, 101.3 kPa	5.878 ± 0.13 mPa·s
320 K, 101 kPa	5 ± 0.06 mPa·s
323.15 K, 100 kPa	4.918 ± 0.067 mPa·s and 4.94 ± 0.15 mPa·s

CCCCCCCCCCCC
Settings	viscosity
298.15 K, 101 kPa	1.34 ± 0.06 mPa·s and 1.338 ± 0.012 mPa·s and 1.336 ± 0.032 mPa·s
298.15 K, 101.33 kPa	1.324 ± 0.017 mPa·s
298.15 K, 103 kPa	1.291 ± 0.041 mPa·s
303.15 K, 101.33 kPa	1.215 ± 0.03 mPa·s and 1.209 ± 0.027 mPa·s
307.52 K, 101.3 kPa	1.159 ± 0.014 mPa·s
307.57 K, 101.3 kPa	1.159 ± 0.014 mPa·s
308.15 K, 100 kPa	1.115 ± 0.11 mPa·s and 1.157 ± 0.014 mPa·s
308.15 K, 101 kPa	1.112 ± 0.014 mPa·s and 1.125 ± 0.028 mPa·s
308.15 K, 103 kPa	1.086 ± 0.041 mPa·s
313.15 K, 101 kPa	1.039 ± 0.026 mPa·s
313.15 K, 101.33 kPa	1.025 ± 0.026 mPa·s
318.15 K, 100 kPa	0.986 ± 0.13 mPa·s
318.15 K, 101 kPa	0.935 ± 0.012 mPa·s and 0.965 ± 0.024 mPa·s
318.15 K, 101.33 kPa	0.935 ± 0.012 mPa·s
318.15 K, 103 kPa	0.936 ± 0.041 mPa·s
323.15 K, 100 kPa	0.9146 ± 0.037 mPa·s and 0.921 ± 0.13 mPa·s
323.15 K, 101 kPa	0.898 ± 0.023 mPa·s
323.15 K, 102 kPa	0.917 ± 0.021 mPa·s (2×) and 0.919 ± 0.021 mPa·s

CN1CCN(C)C1=O
100 kPa
Settings	viscosity [mPa·s]
293.15 K	2.139 ± 0.088
298.15 K	1.945 ± 0.08
303.15 K	1.76 ± 0.072
308.15 K	1.616 ± 0.066
313.15 K	1.491 ± 0.061
318.15 K	1.381 ± 0.057
323.15 K	1.28 ± 0.052

CCCCCCC(=O)[O-].CC[NH+](C(C)C)C(C)C
Settings	viscosity [mPa·s]
298.15 K, 101.3 kPa	12.23 ± 0.76

OCCOCCOCCO
viscosity
Settings	293.15 K	298.1 K	298.15 K	308.15 K	313.15 K	318.15 K	323.15 K
100 kPa	42 ± 0.9 mPa·s and 48.2 ± 1 mPa·s and 48.4 ± 0.2 mPa·s	–	37.1 ± 3.8 mPa·s and 37.8 ± 0.2 mPa·s	23.3 ± 0.1 mPa·s	19.8 ± 0.1 mPa·s	15.4 ± 0.4 mPa·s and 15.83 ± 0.33 mPa·s and 15.1 ± 0.1 mPa·s	13.23 ± 0.28 mPa·s
101 kPa	–	37.4 ± 3 mPa·s	37.1 ± 0.8 mPa·s	23.36 ± 0.2 mPa·s and 21.2 ± 0.5 mPa·s	19.8 ± 0.4 mPa·s	15.59 ± 0.14 mPa·s and 16.1 ± 0.4 mPa·s	–
101.32 kPa	46.1 ± 3.2 mPa·s	–	–	–	17.4 ± 1.2 mPa·s	–	–
